Test: Saturation solubility of dyes in decane
Type: physicochemical

SMILES | Saturation wt % in decane [wt %]
CCCCCCCCCCCCCCCCCCN(CCCCCCCCCCCCCCCCCC)c1cc(NC(C)=O)c(/N=N/c2c(C#N)cc([N+](=O)[O-])cc2C#N)cc1OC [Dye 1] | 0.003
CCCCCCCCN(CCCCCCCC)c1ccc(/N=N/c2snc(C)c2C#N)c(NC(C)=O)c1 [Dye 4] | 0.19
CCCCCCCCCCCCCCc1ccc(/N=N/c2c(C)c(C#N)c(=O)n(CC(CC)CCCC)c2O)cc1 (stereo not drawn) [Dye 5] | 1.03
CCCCCCCCCCCCCCc1ccc(/N=N/c2c(C)cc(=O)n(CC(CC)CCCC)c2O)cc1 (stereo not drawn) [Dye 6] | 3.72
CCCCc1ccc(/N=N/c2ccc(N(CCCC)CCCC)cc2)cc1 [Dye 7] | 9.95
CCCCCCCCN(CCCCCCCC)c1ccc(/N=N/c2ccc([N+](=O)[O-])cc2)c(C)c1 [Dye 8] | 10.50

Reference: US9977309B2, “Electrophoretic fluid” (Merck Patent GmbH, priority 2013, dated 2018)
